From ChEMBL document CHEMBL1909046, “DrugMatrix in vitro pharmacology data”

Columns and labels:
[1] = target: Melanocortin receptor 4 (Homo sapiens, UniProt P32245); assay type: cell membranes, Membrane; details: hek293; further: in other assays of this panel Not Active means under 50% inhibition at 10 µM
[2] = target: Carbonic anhydrase 2 (Homo sapiens, UniProt P00918); assay: DRUGMATRIX: Carbonic Anhydrase II enzyme inhibition (substrate: 4-Nitrophenyl acetate (4-NPA)); assay type: tissue-based, Erythrocyte; details: erythrocyte; Not Active = under 50% inhibition at 10 µM
[3] = target: T1, Endothelin-1 receptor (Homo sapiens, UniProt P25101); assay type: cell membranes, CHO-K1, Membrane; details: cho-k1; further: in other assays of this panel Not Active means under 50% inhibition at 10 µM
T1 sequence (P25101 whole entry): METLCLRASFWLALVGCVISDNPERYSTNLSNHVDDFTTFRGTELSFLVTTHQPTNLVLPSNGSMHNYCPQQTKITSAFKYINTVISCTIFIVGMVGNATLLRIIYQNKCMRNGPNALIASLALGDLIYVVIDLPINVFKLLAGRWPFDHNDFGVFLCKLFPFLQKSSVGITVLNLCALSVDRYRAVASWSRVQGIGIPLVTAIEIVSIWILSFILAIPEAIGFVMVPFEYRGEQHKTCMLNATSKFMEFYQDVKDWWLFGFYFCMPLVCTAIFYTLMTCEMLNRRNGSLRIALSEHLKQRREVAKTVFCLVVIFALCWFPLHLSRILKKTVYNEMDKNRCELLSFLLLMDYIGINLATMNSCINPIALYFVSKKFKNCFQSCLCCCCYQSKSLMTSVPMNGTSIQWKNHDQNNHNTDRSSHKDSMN

[4] = DRUGMATRIX: Calcium Channel Type L, Phenylalkylamine radioligand binding (ligand: [3H] (-)-Desmethoxyverapamil (D-888)); assay type: cell membranes, Rattus norvegicus, Wistar, Brain, Membrane; details: Not Active = under 50% inhibition at 10 µM
[5] = target: T2, C-X-C chemokine receptor type 2 (Homo sapiens, UniProt P25025); assay type: cell membranes, Membrane; details: cho-k1; further: in other assays of this panel Not Active means under 50% inhibition at 10 µM
T2 sequence (P25025 whole entry): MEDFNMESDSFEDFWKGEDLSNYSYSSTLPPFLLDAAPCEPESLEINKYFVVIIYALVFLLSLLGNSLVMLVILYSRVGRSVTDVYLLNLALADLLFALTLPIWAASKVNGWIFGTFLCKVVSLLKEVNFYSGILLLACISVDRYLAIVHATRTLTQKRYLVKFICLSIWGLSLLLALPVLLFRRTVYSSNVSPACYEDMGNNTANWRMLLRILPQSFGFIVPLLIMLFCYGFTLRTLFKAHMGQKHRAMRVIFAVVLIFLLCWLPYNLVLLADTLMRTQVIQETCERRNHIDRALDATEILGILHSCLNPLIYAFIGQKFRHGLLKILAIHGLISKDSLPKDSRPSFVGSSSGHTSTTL

[6] = DRUGMATRIX: GABAA, Muscimol, Central radioligand binding (ligand: [3H] Muscimol); assay type: cell membranes, Rattus norvegicus, Wistar, Brain, Membrane; details: Not Active = under 50% inhibition at 10 µM
[7] = target: T3, D(4) dopamine receptor (Homo sapiens, UniProt P21917); assay: DRUGMATRIX: Dopamine D4.2 radioligand binding (ligand: [3H] Spiperone); assay type: cell membranes, CHO-K1, Membrane; details: cho-k1; Not Active = under 50% inhibition at 10 µM
T3 sequence (P21917 whole entry): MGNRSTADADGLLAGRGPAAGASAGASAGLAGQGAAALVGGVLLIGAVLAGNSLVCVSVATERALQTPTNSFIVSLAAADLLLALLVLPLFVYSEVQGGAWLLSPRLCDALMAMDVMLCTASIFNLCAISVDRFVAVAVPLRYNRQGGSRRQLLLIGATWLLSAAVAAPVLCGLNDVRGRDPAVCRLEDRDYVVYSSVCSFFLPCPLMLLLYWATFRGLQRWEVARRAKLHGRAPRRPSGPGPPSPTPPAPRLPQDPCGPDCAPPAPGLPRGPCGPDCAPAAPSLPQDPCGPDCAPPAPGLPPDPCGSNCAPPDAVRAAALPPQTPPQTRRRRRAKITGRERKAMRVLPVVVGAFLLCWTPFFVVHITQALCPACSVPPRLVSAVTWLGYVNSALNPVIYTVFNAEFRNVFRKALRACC

[8] = target: Cytochrome P450 2D6 (Homo sapiens, UniProt P10635); details: bti-tn-5b1-4; further: in other assays of this panel Not Active means under 50% inhibition at 10 µM
Sequence of Cytochrome P450 2D6 (P10635 whole entry): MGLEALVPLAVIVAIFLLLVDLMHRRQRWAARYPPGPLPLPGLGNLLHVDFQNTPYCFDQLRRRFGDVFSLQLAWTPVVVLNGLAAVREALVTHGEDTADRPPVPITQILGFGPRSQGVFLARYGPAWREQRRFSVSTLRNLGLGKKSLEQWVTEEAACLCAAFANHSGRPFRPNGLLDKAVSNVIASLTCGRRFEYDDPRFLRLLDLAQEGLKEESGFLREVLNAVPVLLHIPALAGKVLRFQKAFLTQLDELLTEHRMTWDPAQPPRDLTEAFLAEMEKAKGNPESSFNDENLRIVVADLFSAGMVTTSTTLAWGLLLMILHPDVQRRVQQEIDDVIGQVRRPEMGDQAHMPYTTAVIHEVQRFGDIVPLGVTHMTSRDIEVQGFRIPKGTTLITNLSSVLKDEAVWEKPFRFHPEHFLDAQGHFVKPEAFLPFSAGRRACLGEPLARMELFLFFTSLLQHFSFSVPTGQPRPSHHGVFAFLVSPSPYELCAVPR

Sequence of Melanocortin receptor 4 (P32245 whole entry): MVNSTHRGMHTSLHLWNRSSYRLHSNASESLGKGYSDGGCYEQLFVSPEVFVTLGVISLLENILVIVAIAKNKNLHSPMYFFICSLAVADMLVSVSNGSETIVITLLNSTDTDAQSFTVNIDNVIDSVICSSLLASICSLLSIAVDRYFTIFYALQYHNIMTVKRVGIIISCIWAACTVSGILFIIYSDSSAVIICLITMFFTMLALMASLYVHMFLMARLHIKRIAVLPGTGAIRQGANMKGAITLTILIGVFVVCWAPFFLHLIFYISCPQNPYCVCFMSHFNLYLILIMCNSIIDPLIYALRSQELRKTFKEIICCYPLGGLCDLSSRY

Compound | IC50 [1] | IC50 [2] | IC50 [3] | IC50 [4] | Ki [4] | IC50 [5] | IC50 [6] | Ki [6] | IC50 [7] | IC50 [8] | Ki [8] | IC50 ([4]; read-out: IC50) [µM] | Ki ([4]; read-out: Ki) [µM]
CC(=O)OCC(CCn1cnc2cnc(N)nc21)COC(C)=O [FAMCICLOVIR] | Not Active | Not Active | Not Active | Not Active | Not Active | Not Active | Not Active | Not Active | Not Active | Not Active | Not Active | – | –
O=C(O)Cc1ccc(-c2ccccc2)cc1 [FELBINAC] | Not Active | Not Active | Not Active | Not Active | Not Active | Not Active | Not Active | Not Active | Not Active | Not Active | Not Active | – | –
CC(C(=O)O)c1ccc(-c2ccccc2)c(F)c1 (stereo not given) [FLURBIPROFEN] | Not Active | Not Active | Not Active | Not Active | Not Active | Not Active | Not Active | Not Active | Not Active | Not Active | Not Active | – | –
NC[C@@H]1O[C@H](O[C@H]2[C@@H](O)[C@H](O[C@@H]3[C@@H](O)[C@H](N)C[C@H](N)[C@H]3O[C@H]3O[C@H](CN)[C@@H](O)[C@H](O)[C@H]3N)O[C@@H]2CO)[C@H](N)[C@@H](O)[C@@H]1O [FRAMYCETIN] | Not Active | Not Active | Not Active | Not Active | Not Active | Not Active | Not Active | Not Active | Not Active | Not Active | Not Active | – | –
C[C@H]([C@](O)(Cn1cncn1)c1ccc(F)cc1F)S(C)(=O)=O [GENACONAZOLE] | Not Active | Not Active | Not Active | Not Active | Not Active | Not Active | Not Active | Not Active | Not Active | Not Active | Not Active | – | –
Cc1c(F)c(N2CCNC(C)C2)cc2c1c(=O)c(C(=O)O)cn2C1CC1 (stereo not given) [GREPAFLOXACIN] | Not Active | Not Active | Not Active | Not Active | Not Active | Not Active | Not Active | Not Active | Not Active | Not Active | Not Active | – | –
N=C(N)N/N=C/c1c(Cl)cccc1Cl [GUANABENZ] | Not Active | Not Active | Not Active | Not Active | Not Active | Not Active | Not Active | Not Active | Not Active | Not Active | Not Active | – | –
C[C@]12CCC(=O)C=C1CC[C@@H]1[C@@H]2[C@@H](O)C[C@@]2(C)[C@H]1CC[C@]2(O)C(=O)CO [HYDROCORTISONE] | Not Active | Not Active | Not Active | Not Active | Not Active | Not Active | Not Active | Not Active | Not Active | Not Active | Not Active | – | –
NC[C@H]1O[C@H](O[C@H]2[C@H](O)[C@@H](O[C@H]3O[C@H](CO)[C@@H](O)[C@H](N)[C@H]3O)[C@H](N)C[C@@H]2N)[C@H](O)[C@@H](O)[C@@H]1O [KANAMYCIN] | Not Active | Not Active | Not Active | Not Active | Not Active | Not Active | Not Active | Not Active | Not Active | Not Active | Not Active | – | –
CC[C@H](C)C(=O)O[C@H]1C[C@@H](C)C=C2C=C[C@H](C)[C@H](CC[C@@H]3C[C@@H](O)CC(=O)O3)[C@H]21 [LOVASTATIN] | Not Active | Not Active | Not Active | – | – | Not Active | Not Active | Not Active | Not Active | Not Active | Not Active | 6.32 | 6.14
